Measurements as given in publication PMC3984115 (PLoS ONE, 2014).
Where “and” joins values, the source holds several entries; their conditions need not be identical. Equal values may be shown once. Read-outs that look alike come from different tables or passages of the source. Where no end group is shown, it is not given here.

What was measured:
[1] = system: nAChRs in monkey adrenal chromaffin cells; experiment: Agonist-evoked currents, perforated-patch patch-clamp, monkey adrenal chromaffin cells; format: cell-based, monkey (Macaca mulatta); conditions: for current amplitude (choline comparison cells): 10 mM choline versus 300 μM ACh in the same cells
[2] = biological target: T1, human α6/α3β4 nAChR (Homo sapiens, UniProt P30926+P32297+Q15825); format: cell-based
T1 construct: expressed in transfected cells; host or cells: Xenopus laevis oocytes (cRNA injection, 1:1 ratio)
T1 sequence (P30926 whole entry, looked up): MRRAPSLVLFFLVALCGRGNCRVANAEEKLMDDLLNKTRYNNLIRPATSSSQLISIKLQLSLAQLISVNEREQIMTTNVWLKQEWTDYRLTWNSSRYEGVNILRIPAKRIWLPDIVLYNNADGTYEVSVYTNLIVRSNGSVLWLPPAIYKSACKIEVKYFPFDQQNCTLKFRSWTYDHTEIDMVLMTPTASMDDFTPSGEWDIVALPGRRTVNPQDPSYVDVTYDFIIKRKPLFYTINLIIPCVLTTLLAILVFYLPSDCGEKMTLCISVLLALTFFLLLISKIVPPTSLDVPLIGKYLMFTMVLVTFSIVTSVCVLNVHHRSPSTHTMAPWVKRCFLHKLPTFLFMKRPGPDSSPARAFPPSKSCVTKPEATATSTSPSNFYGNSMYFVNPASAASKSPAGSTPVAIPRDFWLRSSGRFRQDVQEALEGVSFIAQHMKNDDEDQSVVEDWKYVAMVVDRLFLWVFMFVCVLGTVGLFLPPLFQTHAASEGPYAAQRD
T1 sequence (P32297 whole entry, looked up): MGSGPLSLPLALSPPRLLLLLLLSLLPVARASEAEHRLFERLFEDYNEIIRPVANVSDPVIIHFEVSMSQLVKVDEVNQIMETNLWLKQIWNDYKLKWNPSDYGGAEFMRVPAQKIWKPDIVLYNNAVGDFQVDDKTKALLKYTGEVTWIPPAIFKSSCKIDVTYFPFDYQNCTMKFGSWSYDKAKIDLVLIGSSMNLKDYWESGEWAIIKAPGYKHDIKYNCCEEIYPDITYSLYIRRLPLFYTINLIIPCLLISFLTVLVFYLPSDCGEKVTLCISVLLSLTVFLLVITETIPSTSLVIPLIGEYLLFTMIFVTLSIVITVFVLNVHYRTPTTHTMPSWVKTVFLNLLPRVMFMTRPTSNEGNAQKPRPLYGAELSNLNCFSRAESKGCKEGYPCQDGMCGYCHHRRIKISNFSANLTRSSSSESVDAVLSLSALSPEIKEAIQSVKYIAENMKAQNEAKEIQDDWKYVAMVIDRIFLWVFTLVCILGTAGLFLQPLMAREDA
T1 sequence (Q15825 whole entry, looked up): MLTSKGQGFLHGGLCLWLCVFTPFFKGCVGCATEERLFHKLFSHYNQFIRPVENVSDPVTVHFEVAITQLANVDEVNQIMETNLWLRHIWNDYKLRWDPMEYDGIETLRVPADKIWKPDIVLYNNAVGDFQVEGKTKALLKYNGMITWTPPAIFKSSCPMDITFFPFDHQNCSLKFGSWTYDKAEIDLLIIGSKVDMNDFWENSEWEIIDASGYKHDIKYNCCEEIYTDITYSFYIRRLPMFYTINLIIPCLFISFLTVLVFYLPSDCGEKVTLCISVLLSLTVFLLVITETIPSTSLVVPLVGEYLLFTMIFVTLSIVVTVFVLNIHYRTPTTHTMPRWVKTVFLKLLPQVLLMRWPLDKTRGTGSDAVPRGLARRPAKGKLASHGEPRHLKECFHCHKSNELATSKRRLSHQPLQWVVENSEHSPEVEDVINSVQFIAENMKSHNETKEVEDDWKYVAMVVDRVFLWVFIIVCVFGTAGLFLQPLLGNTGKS

[3] = system: heteromeric receptor subtypes that contain the β2 subunit; set-up: method as in PMID 10692507; conditions: β2-containing heteromeric receptors; ref [38]; cited from earlier work
[4] = system: M. mulatta α7 nAChRs; conditions: heterologously expressed M. mulatta α7; ref [37]; cited from earlier work
[5] = system: release of dopamine from dopaminergic terminals of rat striatal neurons; conditions: cited from earlier work
[6] = system: release of dopamine from dopaminergic terminals of mouse striatal neurons; conditions: cited from earlier work

Molecule: Ic1cncc(OC[C@@H]2CCN2)c1 [5-I-A-85380]
- efficacy versus 300 μM ACh, in words [1]: more efficacious than 300 μM ACh
- response to agonist, in words [1]: responded
- current amplitude (5-I-A-85380 comparison cells) ([1]; n = 4): 1088±120 pA
- current amplitude relative to ACh (printed "% larger than the currents evoked by ACh") ([1]; n = 4): 170±16%
- current density ([1]; n = 4): 256±28 pA/pF
- current amplitude as % of that produced by 300 μM ACh in the same cells [2]: 100±12.1% and 100±12%
- efficacy versus 300 μM ACh, in words [2]: as efficacious as 300 μM ACh
- affinity in words [3]: high affinity

Molecule: CC(=O)OCC[N+](C)(C)C [ACh, acetylcholine]
- current amplitude (5-I-A-85380 comparison cells) ([1]; 100 μM 5-I-A-85380 versus 300 μM ACh in the same cells, n = 4, ± S.E.M.): 657± 97 pA
- current density ([1]; 100 μM 5-I-A-85380 versus 300 μM ACh in the same cells, n = 4, ± S.E.M., difference not statistically significant, p = 0.0625): 149±22 pA/pF
- peak current amplitude ([1]; 300 μM ACh, mean ± S.D.M, n = 18, holding potential −80 mV, 200 ms pulses): 865 ± 387 pA
- current amplitude (choline comparison cells) ([1]; n = 4, ± S.E.M.): 1245±238 pA

Molecule: C[N+](C)(C)CCO [choline]
- current amplitude (choline comparison cells) ([1]; n = 4, ± S.E.M.): 21±4 pA
- current amplitude as % of response evoked by 300 μM ACh in the same cells ([1]; 10 mM choline, n = 4, ± S.E.M., holding potential −80 mV): 1.7±0.1%
- response to agonist, in words ([1]; cells with currents evoked by acetylcholine): relatively unresponsive
- agonist activity in words [4]: full agonist

Molecule: α-Ctx MII (GCCSNPVCHLEHSNLC; ends and bridges not checked; cysteine pairing not given here; UniProt P56636 49-64, looked up)
- sensitivity of dopamine release to toxin, in words [5]: sensitive
- sensitivity of dopamine release to toxin, in words [6]: sensitive
